Results as given in PubChem BioAssay (NCI).
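All cell lines were grown in 96-well plates and treated with compound for 48 hours. The concentration for full growth arrest is given as TGI.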

Experiments:
Experiment in all cases: NCI anticancer screen, dose series, 48 h
[1] = system: A498 renal
[2] = system: ACHN renal
[3] = system: HT29 colon
[4] = system: K-562 leukemia
[5] = system: MOLT-4 leukemia
[6] = system: SF-268 CNS
[7] = system: SF-295 CNS
[8] = system: SK-MEL-2 melanoma
[9] = system: SK-MEL-5 melanoma
[10] = system: U251 CNS

With `COc1cc2nc(-c3cccs3)nc(N3C(c4cc(OC)c(OC)c(OC)c4)=NNC(=O)c4ccccc43)c2cc1OC` the TGI [1] was > 100 µM, the TGI [2] was > 100 µM and the TGI [3] was > 100 µM. The TGI [4] was > 100 µM, the TGI [5] was > 100 µM and the TGI [6] was > 100 µM. For the same molecule, the TGI [7] was 42.6 µM, the TGI [8] was > 100 µM and the TGI [9] was > 100 µM. The TGI [10] was 50.4 µM.

In the case of `CC(C)(CO)CNc1cc(Cl)nc(N)n1`, the TGI [1] is reported as > 100 µM, the TGI [2] is reported as > 100 µM and the TGI [3] is reported as > 100 µM. For the same molecule, the TGI [4] was > 100 µM, the TGI [5] was > 100 µM and the TGI [6] was > 100 µM. For the same molecule, the TGI [7] was > 100 µM, the TGI [8] was > 100 µM and the TGI [9] was > 100 µM. The TGI [10] was > 100 µM.

In the case of `Cc1cc(S(=O)(=O)Nc2n[nH]c(Nc3ccccc3)n2)c(SSc2cc(Cl)c(C)cc2S(=O)(=O)Nc2n[nH]c(Nc3ccccc3)n2)cc1Cl`, the TGI [2] is reported as > 100 µM, the TGI [3] is reported as > 100 µM and the TGI [4] is reported as > 100 µM. The TGI [5] was > 100 µM, the TGI [6] was > 100 µM and the TGI [7] was > 100 µM. The TGI [9] was > 100 µM and the TGI [10] was > 100 µM.

For `COc1ccc(C2=Nc3c(nc(SC)[nH]c3=O)NC(c3ccccc3)C2)cc1` (centres undefined), the TGI [1] was > 100 µM, the TGI [2] was 56.7 µM and the TGI [3] was 49.8 µM. For the same molecule, the TGI [4] was 66 µM, the TGI [5] was 57.1 µM and the TGI [7] was 60.4 µM. For the same molecule, the TGI [8] was 94.4 µM, the TGI [9] was 30.1 µM and the TGI [10] was 36.4 µM.

`Fc1ccc2c(c1)nc1n2C(c2c(F)cccc2F)SC1` (centres undefined) was tested, and the TGI [1] was > 100 µM, the TGI [2] was > 100 µM and the TGI [3] was > 100 µM. For the same molecule, the TGI [5] was 69 µM, the TGI [6] was > 100 µM and the TGI [7] was > 100 µM. For the same molecule, the TGI [8] was > 100 µM, the TGI [9] was 68.3 µM and the TGI [10] was > 100 µM.

With `CNC(=O)C1OC(n2cnc3c(NCc4cccc(I)c4)nc(Cl)nc32)C(O)C1O` (centres undefined) the TGI [1] was 33.7 µM, the TGI [2] was 24 µM and the TGI [4] was > 100 µM. It also gave a TGI [5] of 53.3 µM, a TGI [6] of 23.5 µM and a TGI [7] of 40.4 µM. For the same molecule, the TGI [8] was 27.8 µM, the TGI [9] was 42.2 µM and the TGI [10] was 40.4 µM.

`CCOC(=O)C1CCCN1C(=O)c1ccccc1Cl` (centres undefined) was tested, and the TGI [1] was > 100 µM, the TGI [2] was > 100 µM and the TGI [3] was > 100 µM. For the same molecule, the TGI [4] was > 100 µM, the TGI [5] was > 100 µM and the TGI [6] was > 100 µM. The TGI [7] was > 100 µM, the TGI [9] was > 100 µM and the TGI [10] was > 100 µM.

For `CC1C(c2ccccc2)NC(c2ccccc2)CC1(N)C#N` (centres undefined), the TGI [2] was > 100 µM, the TGI [3] was > 100 µM and the TGI [4] was > 100 µM. The TGI [5] was > 100 µM, the TGI [6] was > 100 µM and the TGI [7] was > 100 µM. For the same molecule, the TGI [9] was > 100 µM and the TGI [10] was > 100 µM.

In the case of `Cc1ccsc1/C=N/Nc1cc(C)c2ccccc2n1`, the TGI [1] is reported as 23 µM, the TGI [2] is reported as 34.9 µM and the TGI [3] is reported as 15 µM. For the same molecule, the TGI [4] was 78.4 µM, the TGI [5] was 35.1 µM and the TGI [6] was 42.2 µM. For the same molecule, the TGI [7] was 37.8 µM, the TGI [8] was 51.2 µM and the TGI [9] was 9 µM. For the same molecule, the TGI [10] was 31.4 µM.

In the case of `Cc1ccc(S(=O)(=O)N/N=C\c2c3ccccc3[n+](C)c3ccccc23)cc1`, the TGI [1] is reported as > 100 µM, the TGI [2] is reported as > 100 µM and the TGI [3] is reported as 62.6 µM. For the same molecule, the TGI [4] was 52.7 µM, the TGI [5] was 53.3 µM and the TGI [6] was > 100 µM. The TGI [7] was 30.3 µM, the TGI [8] was > 100 µM and the TGI [9] was 98.5 µM. It also gave a TGI [10] of 71.3 µM.

`O=C1Nc2ccccc2SC1=C(C(=O)c1ccccc1)C(=O)c1ccccc1` was tested, and the TGI [1] was > 80.3 µM, the TGI [2] was > 100 µM and the TGI [3] was > 100 µM. For the same molecule, the TGI [4] was > 100 µM, the TGI [6] was > 100 µM and the TGI [7] was 57.5 µM. For the same molecule, the TGI [8] was 67.1 µM, the TGI [9] was > 100 µM and the TGI [10] was > 100 µM.

For `Nc1ncc2c(n1)-c1ccccc1OC2`, the TGI [1] was > 100 µM, the TGI [3] was > 100 µM and the TGI [4] was > 100 µM. For the same molecule, the TGI [5] was > 100 µM, the TGI [6] was > 100 µM and the TGI [7] was > 100 µM. The TGI [8] was > 100 µM, the TGI [9] was > 100 µM and the TGI [10] was > 100 µM.

`ClC1=C(Cl)C2OC3C=CCC3OC2C(Cl)=C1Cl` (centres undefined) was tested, and the TGI [1] was > 100 µM, the TGI [2] was > 100 µM and the TGI [3] was 72.1 µM. The TGI [4] was > 100 µM, the TGI [5] was > 100 µM and the TGI [6] was > 100 µM. The TGI [7] was > 100 µM, the TGI [8] was 48.1 µM and the TGI [9] was > 100 µM. The TGI [10] was > 100 µM.

With `Clc1ncnc2c1nc(C#Cc1ccccc1)n2C1CCCCO1` (centres undefined) the TGI [1] was 8.84 µM, the TGI [2] was 3.06 µM and the TGI [3] was 3.98 µM. It also gave a TGI [4] of 7.46 µM, a TGI [5] of 8.32 µM and a TGI [6] of 6.22 µM. The TGI [7] was 16.5 µM, the TGI [8] was 6.49 µM and the TGI [9] was 5.06 µM. It also gave a TGI [10] of 4.29 µM.

With `OCC(S)CS.[Bi]` (centres undefined) the TGI [1] was 56.3 µM, the TGI [2] was 30.6 µM and the TGI [3] was 46.4 µM. The TGI [4] was > 100 µM, the TGI [6] was 28.4 µM and the TGI [7] was > 100 µM. For the same molecule, the TGI [8] was 30 µM, the TGI [9] was > 100 µM and the TGI [10] was 40.2 µM.

For `O=S(=O)(O)c1cc(N=[N+]([O-])c2ccc(N=Nc3ccccc3)cc2S(=O)(=O)O)ccc1/C=C/c1ccc(N=[N+]([O-])c2ccc(N=Nc3ccccc3)cc2S(=O)(=O)O)cc1S(=O)(=O)O`, the TGI [1] was > 100 µM, the TGI [3] was > 100 µM and the TGI [4] was > 100 µM. For the same molecule, the TGI [5] was > 100 µM, the TGI [6] was > 100 µM and the TGI [7] was > 100 µM. For the same molecule, the TGI [8] was > 100 µM, the TGI [9] was > 100 µM and the TGI [10] was > 100 µM.

For `Cc1ccc2c(c1)Nc1ccccc1P2(=O)O`, the TGI [1] was > 100 µM, the TGI [2] was > 100 µM and the TGI [3] was > 100 µM. For the same molecule, the TGI [4] was > 100 µM, the TGI [5] was > 100 µM and the TGI [6] was > 100 µM. For the same molecule, the TGI [7] was > 100 µM, the TGI [8] was > 100 µM and the TGI [9] was > 100 µM. The TGI [10] was > 100 µM.

`Cc1oc2nc(N(C)C)n3cnnc3c2c1C` was tested, and the TGI [1] was > 100 µM, the TGI [2] was > 100 µM and the TGI [3] was > 100 µM. For the same molecule, the TGI [4] was > 100 µM, the TGI [5] was > 100 µM and the TGI [6] was > 100 µM. The TGI [7] was > 100 µM, the TGI [8] was > 100 µM and the TGI [9] was > 100 µM. For the same molecule, the TGI [10] was > 100 µM.

In the case of `Nc1ccc(C(=O)O)cc1`, the TGI [2] is reported as > 100 µM, the TGI [3] is reported as > 100 µM and the TGI [4] is reported as > 100 µM. For the same molecule, the TGI [5] was > 100 µM, the TGI [6] was > 100 µM and the TGI [7] was > 100 µM. For the same molecule, the TGI [8] was > 100 µM, the TGI [9] was > 100 µM and the TGI [10] was > 100 µM.

For `CCCCCCCCCCCCCCCCCCNc1nc(=O)n(C2CC(OP(=O)(O)OCC3OC(n4cc(F)c(=O)[nH]c4=O)CC3O)C(CO)O2)cc1F` (centres undefined), the TGI [1] was > 100 µM, the TGI [2] was > 100 µM and the TGI [3] was 48.4 µM. The TGI [4] was > 100 µM, the TGI [5] was 41.9 µM and the TGI [6] was 37.1 µM. For the same molecule, the TGI [7] was 38.5 µM, the TGI [8] was 71 µM and the TGI [9] was > 100 µM. The TGI [10] was 65.2 µM.

For `O=C(NNc1nc(-c2ccccc2)cs1)Nc1ccccc1`, the TGI [2] was > 100 µM, the TGI [3] was 76.2 µM and the TGI [4] was > 100 µM. The TGI [5] was > 100 µM, the TGI [6] was 80.9 µM and the TGI [7] was 83.6 µM. The TGI [8] was 44.6 µM, the TGI [9] was 38.2 µM and the TGI [10] was 58.1 µM.

In the case of `NS(=O)(=O)c1ccc(NCc2nc3ccccc3[nH]2)cc1`, the TGI [1] is reported as > 100 µM, the TGI [2] is reported as > 100 µM and the TGI [3] is reported as > 100 µM. For the same molecule, the TGI [6] was > 100 µM, the TGI [7] was > 100 µM and the TGI [8] was > 100 µM. The TGI [9] was > 100 µM and the TGI [10] was > 100 µM.
